Experimental data reported in patent US10106530B2, “Pyrazolyl substituted tetrahydropyranylsulfones” (GRÜNENTHAL GMBH, priority 2015, dated 2018).

Biological target: T1, Human CaV2.2 channels (Homo sapiens, UniProt Q00975)
T1 construct: expressed in transfected cells; also stably expressing Kir2.3)
Test: Fluorescence assay for CaV2.2 channels using potassium depolarization to induce channel opening (FLIPR, Fluo 4)
Type: cell-based
Conditions: 30 mM KCl assay buffer (inactivated channel state), HEK293 cells; for inhibition at 3 µM: HEK293, 3 μM test compound, read-out: Activity Category: %-Inhib (CaV2.2) @3 μM @30 mM KCl; for Activity Category: %-Inhib (CaV2.2) @3 μM @30 mM KCl: 3 μM test compound
Description: In the process, the Ca^2+ influx is quantified in the FLIPR assay with the aid of a Ca^2+-sensitive dye (type Fluo-4, Molecular Probes Europe BV, Leiden, the Netherlands) in a fluorescent imaging plate reader (FLIPR 3, Molecular Devices, Sunnyvale, USA), as described hereinafter.
[drawing 69] 2. Assay Descriptions and Biological Data: 2.1 Fluorescence Assay for CaV2.2 Channels Using Potassium Depolarization to Induce Channel Opening
Human CaV2.2 channels were stably expressed in HEK293 cells together with alpha2-delta and beta subunits of voltage gated calcium channels. In addition, an inwardly rectifying potassium channel (Kir2.3) was stably expressed in these cells to augment control of the cell membrane potential by the concentration of extracellular potassium ions. Raise of the extracellular potassium concentration leads to depolarization of the membrane potential and thus regulates the voltage dependent state of CaV2.2 channels. For preparation, cells were seeded in black poly-D-lysine coated 96-well plates (Becton Dickinson, Biocoat 4640) in 100 μL medium [500 mL DMEM/F-12 plus Glutamax (Invitrogen 31331-093) plus 5.5 mL MEM NEAA 100× (Invitrogen 11140-035) plus 50 mL FBS decomplemented (Invitrogen 10270-106) plus 200 μg/mL Geneticin (Invitrogen 10131-027) plus 50 μg/mL Hygromycin B (Invitrogen 10687-010) plus 2 μg/mL Blasticidin (anti-b15b Invivo-Gen) plus 0.2 μg/mL Puromycin (A 11138-03)] at a cell density of 30.000 cells per well. Plates were incubated at 37° C. (5% CO2) for 20 to 23 h. On the day of experiment medium was discarded and cells were loaded with Fluo 4 by addition of 100 μL of basic assay buffer (10 mM HEPES, 1 mM KCl, 149 mM NaCl, 0.8 mM CaCl2, 1.7 mM MgCl2, 10 mM Glucose, 0.1% BSA. pH 7.4) containing 2 μM Fluo 4 (Molecular Probes; F-14201), 0.01% pluronic acid (Molecular Probes; P-6866) and 2.5 mM probenecid (Molecular Probes; P36400). Cells were incubated in the dark at 25° C. for 60 min. Then dye containing buffer was discarded and 100 μL basic (1 mM KCl) or alternative (30 mM KCl) assay buffer was added. The alternative assay buffer contained altered concentrations of KCl (30 mM) and NaCl (120 mM) and was used in order to promote the inactivated channel state. After that 25 μL of basic or alternative assay buffer with or without test compound were added and cells were incubated again in the dark at 25° C. for 15 min. Fluorescence intensity was measured on a FLIPR 3 instrument (Molecular Devices Corp., Sunnyvale, Calif.) with excitation at 480 nm and emission at 535 nm. After continuously reading fluorescence for 30 sec, 50 μL of basic assay buffer containing 210 mM KCl(NaCl omitted) were added for depolarization. Peak fluorescent signal intensity was determined and the amplitude of the peak signal, normalized to base line, was used to measure channel inhibition by test compounds.

T1 sequence (Q00975 whole entry): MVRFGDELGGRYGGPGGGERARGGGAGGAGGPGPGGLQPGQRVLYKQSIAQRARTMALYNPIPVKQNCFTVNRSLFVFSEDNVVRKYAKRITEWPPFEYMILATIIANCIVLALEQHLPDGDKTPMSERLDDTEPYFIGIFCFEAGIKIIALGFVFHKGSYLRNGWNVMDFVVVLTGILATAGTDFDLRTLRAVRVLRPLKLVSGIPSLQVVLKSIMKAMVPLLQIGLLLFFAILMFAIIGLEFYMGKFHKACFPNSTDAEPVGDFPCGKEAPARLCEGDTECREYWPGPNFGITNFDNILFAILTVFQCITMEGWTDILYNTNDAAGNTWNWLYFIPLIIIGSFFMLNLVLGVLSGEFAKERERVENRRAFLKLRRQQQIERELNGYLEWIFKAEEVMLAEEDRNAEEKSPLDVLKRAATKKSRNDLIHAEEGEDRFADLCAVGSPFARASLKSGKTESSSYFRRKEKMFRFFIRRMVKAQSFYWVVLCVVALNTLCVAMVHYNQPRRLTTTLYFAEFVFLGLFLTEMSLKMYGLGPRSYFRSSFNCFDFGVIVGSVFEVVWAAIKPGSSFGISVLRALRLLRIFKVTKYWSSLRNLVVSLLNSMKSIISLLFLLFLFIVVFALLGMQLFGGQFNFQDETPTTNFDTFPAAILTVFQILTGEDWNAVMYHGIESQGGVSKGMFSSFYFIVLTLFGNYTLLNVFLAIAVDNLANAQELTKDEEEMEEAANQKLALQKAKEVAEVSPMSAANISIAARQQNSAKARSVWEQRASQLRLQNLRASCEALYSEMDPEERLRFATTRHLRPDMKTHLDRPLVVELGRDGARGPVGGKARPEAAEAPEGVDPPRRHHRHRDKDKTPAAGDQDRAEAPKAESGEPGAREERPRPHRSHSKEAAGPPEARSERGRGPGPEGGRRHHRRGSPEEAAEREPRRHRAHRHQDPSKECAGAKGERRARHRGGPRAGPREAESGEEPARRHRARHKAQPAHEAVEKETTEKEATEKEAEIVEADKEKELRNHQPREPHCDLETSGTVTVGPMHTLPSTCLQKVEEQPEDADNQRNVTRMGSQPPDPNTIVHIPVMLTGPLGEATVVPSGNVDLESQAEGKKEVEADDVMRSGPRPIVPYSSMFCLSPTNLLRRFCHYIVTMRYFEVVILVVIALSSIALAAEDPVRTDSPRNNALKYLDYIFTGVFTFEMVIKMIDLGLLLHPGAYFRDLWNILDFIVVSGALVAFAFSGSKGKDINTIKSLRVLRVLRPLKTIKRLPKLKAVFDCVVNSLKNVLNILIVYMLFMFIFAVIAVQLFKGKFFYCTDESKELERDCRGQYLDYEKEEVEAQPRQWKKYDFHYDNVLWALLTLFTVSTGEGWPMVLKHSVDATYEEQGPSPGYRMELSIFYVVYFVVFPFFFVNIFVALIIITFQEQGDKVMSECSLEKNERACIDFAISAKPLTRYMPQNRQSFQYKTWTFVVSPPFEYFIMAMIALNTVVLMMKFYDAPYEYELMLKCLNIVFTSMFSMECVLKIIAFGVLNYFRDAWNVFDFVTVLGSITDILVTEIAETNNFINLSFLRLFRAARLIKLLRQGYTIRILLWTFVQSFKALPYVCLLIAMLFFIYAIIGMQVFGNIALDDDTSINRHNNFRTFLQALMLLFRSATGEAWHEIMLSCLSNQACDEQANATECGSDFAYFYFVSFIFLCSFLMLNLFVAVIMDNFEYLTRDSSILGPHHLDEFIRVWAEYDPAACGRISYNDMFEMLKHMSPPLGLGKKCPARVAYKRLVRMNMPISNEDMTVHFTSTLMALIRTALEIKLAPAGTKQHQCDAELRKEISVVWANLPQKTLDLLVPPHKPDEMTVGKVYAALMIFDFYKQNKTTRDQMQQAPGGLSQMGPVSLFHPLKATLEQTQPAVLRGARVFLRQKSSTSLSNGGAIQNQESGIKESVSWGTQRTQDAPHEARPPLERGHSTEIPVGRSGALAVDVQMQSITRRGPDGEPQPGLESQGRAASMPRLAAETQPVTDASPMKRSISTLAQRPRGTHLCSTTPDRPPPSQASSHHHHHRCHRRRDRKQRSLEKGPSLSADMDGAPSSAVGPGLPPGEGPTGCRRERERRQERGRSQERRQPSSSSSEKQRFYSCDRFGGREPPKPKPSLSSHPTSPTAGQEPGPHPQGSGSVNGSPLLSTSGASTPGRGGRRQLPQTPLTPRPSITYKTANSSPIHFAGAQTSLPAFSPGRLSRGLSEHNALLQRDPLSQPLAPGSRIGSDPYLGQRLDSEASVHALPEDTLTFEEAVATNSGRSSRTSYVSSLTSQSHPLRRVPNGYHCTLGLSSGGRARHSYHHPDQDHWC

## CC1(S(=O)(=O)c2cccc(C(F)(F)F)c2)CCOC(c2cc(OCC(F)(F)F)n[nH]2)C1 (stereo not drawn) [Example 16 cis-EN2, 5-[4-Methyl-4-[[3-(trifluoromethyl)phenyl]sulfonyl]-tetrahydro-pyran-2-yl]-3-(2,2,2-trifluoro-ethoxy)-1H-pyrazole]
  inhibition at 3 µM: > 95%

## CC(C)CS(=O)(=O)c1cc(C2CC(C)(S(=O)(=O)c3cccc(C(F)(F)F)c3)CCO2)[nH]n1 (stereo not drawn) [Example 35 cis-EN1, 3-(2-Methyl-propylsulfonyl)-5-[4-methyl-4-[[3-(trifluoromethyl)phenyl]sulfonyl]-tetrahydro-pyran-2-yl]-1H-pyrazole]
  inhibition at 3 µM: 75 to 95%

## CC1(S(=O)(=O)c2cccc(C(F)(F)F)c2)CCOC(c2cc(CC(F)F)n[nH]2)C1 (stereo not drawn) [Example 14 cis-EN2, 3-(2,2-Difluoro-ethyl)-5-[4-methyl-4-[[3-(trifluoromethyl)phenyl]sulfonyl]-tetrahydro-pyran-2-yl]-1H-pyrazole]
  Activity Category: %-Inhib (CaV2.2) @3 μM @30 mM KCl: A (%-Inhibition >95%)

## COCCS(=O)(=O)c1cc(C2CC(C)(S(=O)(=O)c3cccc(C(F)(F)F)c3)CCO2)[nH]n1 (stereo not drawn) [Example 5 cis-EN1, 3-(2-Methoxy-ethylsulfonyl)-5-[4-methyl-4-[[3-(trifluoromethyl)phenyl]sulfonyl]-tetrahydro-pyran-2-yl]-1H-pyrazole]
Listed as 5 cis-EN1
  Activity Category: %-Inhib (CaV2.2) @3 μM @30 mM KCl: B (%-Inhibition >75% up to ≤95%)

## CC1(S(=O)(=O)c2cccc(C(F)(F)F)c2)CCOC(c2cc(S(=O)(=O)C(F)(F)F)n[nH]2)C1 (stereo not drawn) [Example 27 cis-EN2, 3-(Trifluoro-methylsulfonyl)-5-[4-methyl-4-[[3-(trifluoromethyl)phenyl]sulfonyl]-tetrahydro-pyran-2-yl]-1H-pyrazole]
  Activity Category: %-Inhib (CaV2.2) @3 μM @30 mM KCl: B (%-Inhibition >75% up to ≤95%)

## COCC(C)(C)c1cc(C2CC(C)(S(=O)(=O)c3cccc(C(F)(F)F)c3)CCO2)[nH]n1 (stereo not drawn) [Example 33 cis-EN1, 3-(2-Methoxy-1,1-dimethyl-ethyl)-5-[4-methyl-4-[[3-(trifluoromethyl)phenyl]sulfonyl]-tetrahydro-pyran-2-yl]-1H-pyrazole]
  inhibition at 3 µM: > 95%

## CC(C)(CO)c1cc(C2CC(C)(S(=O)(=O)c3cccc(C(F)(F)F)c3)CCO2)[nH]n1 (stereo not drawn) [Example 34 cis-EN1, 2-Methyl-2-[5-[4-methyl-4-[[3-(trifluoromethyl)phenyl]sulfonyl]-tetrahydro-pyran-2-yl]-1H-pyrazol-3-yl]-propan-1-ol]
  inhibition at 3 µM: 75 to 95%

## CC1(S(=O)(=O)c2cccc(C(F)(F)F)c2)CCOC(c2cc(CC(F)F)n[nH]2)C1 (stereo not drawn) [Example 14 cis-EN1, 3-(2,2-Difluoro-ethyl)-5-[4-methyl-4-[[3-(trifluoromethyl)phenyl]sulfonyl]-tetrahydro-pyran-2-yl]-1H-pyrazole]
  inhibition at 3 µM: 75 to 95%

## CC(C)CS(=O)(=O)c1cc(C2CC(C)(S(=O)(=O)c3cccc(C(F)(F)F)c3)CCO2)[nH]n1 (stereo not drawn) [Example 35 cis-EN2, 3-(2-Methyl-propylsulfonyl)-5-[4-methyl-4-[[3-(trifluoromethyl)phenyl]sulfonyl]-tetrahydro-pyran-2-yl]-1H-pyrazole]
  Activity Category: %-Inhib (CaV2.2) @3 μM @30 mM KCl: A (%-Inhibition >95%)

## C[C@@]1(S(=O)(=O)c2cccc(C(F)(F)F)c2)CCO[C@@H](c2cc(S(=O)(=O)C(F)F)n[nH]2)C1 (racemic) [[trans-rac] Example 1, 3-(Difluoro-methylsulfonyl)-5-[4-methyl-4-[[3-(trifluoromethyl)phenyl]sulfonyl]-tetrahydro-pyran-2-yl]-1H-pyrazole]
  inhibition at 3 µM: 75 to 95%

## CC1(S(=O)(=O)c2cccc(C(F)(F)F)c2)CCOC(c2cc(CS(=O)(=O)C(F)F)n[nH]2)C1 (stereo not drawn) [Example 28 cis-EN1, 3-[(Difluoro-methylsulfonyl)-methyl]-5-[4-methyl-4-[[3-(trifluoromethyl)phenyl]sulfonyl]-tetrahydro-pyran-2-yl]-1H-pyrazole]
  inhibition at 3 µM: 75 to 95%

## CC1(S(=O)(=O)c2cccc(C(F)(F)F)c2)CCOC(c2cc(S(C)(=O)=O)n[nH]2)C1 (stereo not drawn) [Example 37 cis-EN1, 5-Methylsulfonyl-3-[4-methyl-4-[[3-(trifluoromethyl)phenyl]sulfonyl]-tetrahydro-pyran-2-yl]-1H-pyrazole]
Listed as 37 cis-EN1
  Activity Category: %-Inhib (CaV2.2) @3 μM @30 mM KCl: C (%-Inhibition >40% up to ≤75%)

## CC(C)(C#N)c1cc(C2CC(C)(S(=O)(=O)c3cccc(C(F)(F)F)c3)CCO2)[nH]n1 (stereo not drawn) [Example 31 cis-EN1, 2-Methyl-2-[5-[4-methyl-4-[[3-(trifluoromethyl)phenyl]sulfonyl]-tetrahydro-pyran-2-yl]-1H-pyrazol-3-yl]-propionitrile]
  inhibition at 3 µM: > 95%

## CC1(S(=O)(=O)c2cccc(C(F)(F)F)c2)CCOC(c2cc(S(=O)(=O)CC(F)(F)F)n[nH]2)C1 (stereo not drawn) [Example 29 cis-EN1, 5-[4-Methyl-4-[[3-(trifluoromethyl)phenyl]sulfonyl]-tetrahydro-pyran-2-yl]-3-(2,2,2-trifluoro-ethylsulfonyl)-1H-pyrazole]
  inhibition at 3 µM: 75 to 95%

## CC1(S(=O)(=O)c2cccc(C(F)(F)F)c2)CCOC(c2cc(S(=O)(=O)C3COC3)n[nH]2)C1 (stereo not drawn) [Example 4 cis-EN2, 5-[4-Methyl-4-[[3-(trifluoromethyl)phenyl]sulfonyl]-tetrahydro-pyran-2-yl]-3-(oxetan-3-ylsulfonyl)-1H-pyrazole]
Listed as 4 cis-EN2
  Activity Category: %-Inhib (CaV2.2) @3 μM @30 mM KCl: B (%-Inhibition >75% up to ≤95%)

## CC1(S(=O)(=O)c2cccc(C(F)(F)F)c2)CCOC(c2cc(CCS(C)(=O)=O)n[nH]2)C1 (stereo not drawn) [Example 9 cis-EN1, 3-(2-Methylsulfonyl-ethyl)-5-[4-methyl-4-[[3-(trifluoromethyl)phenyl]sulfonyl]-tetrahydro-pyran-2-yl]-1H-pyrazole]
  inhibition at 3 µM: 40 to 75%

## CC1(S(=O)(=O)c2cccc(C(F)(F)F)c2)CCOC(c2cc(C(F)F)[nH]n2)C1 (stereo not drawn) [[cis-EN2] Example 12] [5-(Difluoro-methyl)-3-[4-methyl-4-[[3-(trifluoromethyl)phenyl]sulfonyl]-tetrahydro-pyran-2-yl]-1H-pyrazole]
  Activity Category: %-Inhib (CaV2.2) @3 μM @30 mM KCl: A (%-Inhibition >95%)

## CC1(S(=O)(=O)c2cccc(C(F)(F)F)c2)CCOC(c2cc(S(=O)(=O)CC(F)F)n[nH]2)C1 (stereo not drawn) [Example 3 cis-EN1, 3-(2,2-Difluoro-ethylsulfonyl)-5-[4-methyl-4-[[3-(trifluoromethyl)phenyl]sulfonyl]-tetrahydro-pyran-2-yl]-1H-pyrazole]
  inhibition at 3 µM: 30 to 40%

## CC(C)(c1cc(C2CC(C)(S(=O)(=O)c3cccc(C(F)(F)F)c3)CCO2)[nH]n1)S(C)(=O)=O (stereo not drawn) [Example 7 cis-EN1, 3-(1-Methyl-1-methylsulfonyl-ethyl)-5-[4-methyl-4-[[3-(trifluoromethyl)phenyl]sulfonyl]-tetrahydro-pyran-2-yl]-1H-pyrazole]
  inhibition at 3 µM: 75 to 95%

## CC(C)(C)CS(=O)(=O)c1cc(C2CC(C)(S(=O)(=O)c3cccc(C(F)(F)F)c3)CCO2)[nH]n1 (stereo not drawn) [Example 36 cis-EN1, 3-(2,2-Dimethyl-propylsulfonyl)-5-[4-methyl-4-[[3-(trifluoromethyl)phenyl]sulfonyl]-tetrahydro-pyran-2-yl]-1H-pyrazole]
  inhibition at 3 µM: 75 to 95%

## CC(C)(C#N)c1cc(C2CC(C)(S(=O)(=O)c3cccc(C(F)(F)F)n3)CCO2)[nH]n1 (stereo not drawn) [Example 38 cis-EN2, 2-Methyl-2-[5-[4-methyl-4-[[6-(trifluoromethyl)-pyridin-2-yl]sulfonyl]-tetrahydro-pyran-2-yl]-1H-pyrazol-3-yl]-propionitrile]
Listed as 38 cis-EN2
  Activity Category: %-Inhib (CaV2.2) @3 μM @30 mM KCl: B (%-Inhibition >75% up to ≤95%)

## CC1(S(=O)(=O)c2cccc(C(F)(F)F)c2)CCOC(c2cc(OCC(F)F)n[nH]2)C1 (stereo not drawn) [Example 32 cis-EN1, 5-(2,2-Difluoro-ethoxy)-3-[4-methyl-4-[[3-(trifluoromethyl)phenyl]sulfonyl]-tetrahydro-pyran-2-yl]-1H-pyrazole]
  inhibition at 3 µM: > 95%
